Reference: paper PMC5082902, “Exported Epoxide Hydrolases Modulate Erythrocyte Vasoactive Lipids during Plasmodium falciparum Infection” (mBio, 2016)

What was measured:
Assay in all cases: ELISA of […]([…])-DHET diol product
Format in all cases: biochemical
Settings in all cases: 6 or 12 uM EET, 100 ug enzyme in 100 ul PBS, 37 C, 1.5 h
PfEH2 [1] = biological target: T1, PfEH2 (Plasmodium falciparum, UniProt Q8IM75)
T1 construct: gene PF3D7_1401300; borders of the construct only in supplement

PfEH1 = biological target: T2, PfEH1 (Plasmodium falciparum, UniProt Q9Y013)
T2 construct: gene PF3D7_0301300; borders of the construct only in supplement
T2 sequence (Q9Y013 entry or part of it): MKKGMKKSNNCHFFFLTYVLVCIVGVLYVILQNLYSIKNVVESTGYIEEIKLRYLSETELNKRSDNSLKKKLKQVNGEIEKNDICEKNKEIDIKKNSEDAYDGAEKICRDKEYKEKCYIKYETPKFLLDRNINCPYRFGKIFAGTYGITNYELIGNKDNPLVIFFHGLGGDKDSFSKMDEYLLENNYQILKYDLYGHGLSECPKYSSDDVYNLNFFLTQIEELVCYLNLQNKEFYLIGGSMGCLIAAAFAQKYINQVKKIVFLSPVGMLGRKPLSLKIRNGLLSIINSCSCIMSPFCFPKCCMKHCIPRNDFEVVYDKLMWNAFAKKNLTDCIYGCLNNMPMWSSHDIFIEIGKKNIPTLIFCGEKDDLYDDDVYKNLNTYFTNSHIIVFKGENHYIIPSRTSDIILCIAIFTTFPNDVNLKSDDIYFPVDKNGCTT

PfEH2 [2] = biological target: T1, PfEH2; remark: listed apart in the source

T1 sequence (Q8IM75 entry or part of it): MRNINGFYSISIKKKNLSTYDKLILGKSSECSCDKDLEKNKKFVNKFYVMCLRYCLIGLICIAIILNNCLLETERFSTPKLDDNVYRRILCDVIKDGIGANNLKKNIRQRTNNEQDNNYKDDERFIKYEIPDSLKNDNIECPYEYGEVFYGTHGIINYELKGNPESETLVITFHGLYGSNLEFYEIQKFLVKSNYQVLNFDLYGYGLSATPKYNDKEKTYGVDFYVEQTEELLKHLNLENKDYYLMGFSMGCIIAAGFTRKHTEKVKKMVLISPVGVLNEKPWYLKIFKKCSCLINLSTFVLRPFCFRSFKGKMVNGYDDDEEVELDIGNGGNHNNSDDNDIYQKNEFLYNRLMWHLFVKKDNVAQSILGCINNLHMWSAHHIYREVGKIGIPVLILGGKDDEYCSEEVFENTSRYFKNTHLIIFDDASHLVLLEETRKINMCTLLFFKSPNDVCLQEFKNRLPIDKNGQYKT

| SMILES | ELISA of 11(12)-DHET diol product (PfEH2 [1]) | ELISA of 11(12)-DHET diol product (PfEH1) | ELISA of 14(15)-DHET diol product (PfEH2 [2]) |
| --- | --- | --- | --- |
| CCCCC/C=C\CC1OC1C/C=C\C/C=C\CCCC(=O)O (stereo not drawn) [11(12)-EET] | Both recombinant PfEH1 and PfEH2 enzymes increased the formation of the diol product | Both recombinant PfEH1 and PfEH2 enzymes increased the formation of the diol product | – |
| CCCCCC1OC1C/C=C\C/C=C\C/C=C\CCCC(=O)O (stereo not drawn) [14(15)-EET] | – | – | Both recombinant PfEH1 and PfEH2 enzymes increased the formation of the diol product |
